Earlier results in publication PMC8604667 (International Journal of Pharmaceutics: X, 2021).

Legend:
P-glycoprotein = conditions: ref Takemoto et al., 2006; Negi et al., 2013
[1] = ref Venditto and Simanek, 2010

Q: Which results are given for CC[C@@]1(O)C(=O)OCc2c1cc1n(c2=O)Cc2cc3ccccc3nc2-1 [camptothecin, Camptothecin]?
A: P-glycoprotein substrate (P-glycoprotein): P-glycoprotein substrate; pH at which lactone and carboxylate forms co-exist at 50% [1]: 6.65
